Activity and MIC data for 20 molecules are collected here from ChEMBL document CHEMBL1821612, “Discovery of novel antitubercular 3a,4-dihydro-3H-indeno[1,2-c]pyrazole-2-carboxamide/carbothioamide analogues” (Bioorg Med Chem Lett, 2011).

≈ marks a conversion by molar mass, not a printed value.

The test system of the first data set is Vero. Nature of the data set: Cytotoxicity against african green monkey Vero cells up to 62.5 ug/mL after 72 hrs by MTT assay. It counts as cell-based. Conditions: chlorocebus sabaeus. (Tetrazolium dyes change colour on reduction, which living cells bring about.)
`COc1cc2c(cc1OC)C1=NN(C(N)=S)C(c3ccc(F)cc3)C1C2` (stereo unspecified): the Activity result is listed as “Non-toxic”.

The test system of the next data set is Mycobacterium tuberculosis. Put plainly: Antimycobacterial activity against Mycobacterium tuberculosis H37Rv after 2 weeks by BACTEC 460 radiometric method. It counts as functional. To be noted: 336 h.
For `COc1cc2c(cc1OC)C1=NN(C(=O)Nc3ccc(C)cc3C)C(c3ccncc3)C1C2` (stereo unspecified), 10 µM (≈ 4.43 µg/mL) was the least that counted as inhibitory (MIC).

As for `COc1cc2c(cc1OC)C1=NN(C(=O)Nc3ccc(C)cc3C)C(c3ccccc3Cl)C1C2` (stereo unspecified), the MIC amounted to 6.25 µM (≈ 2.97 µg/mL).

In turn, `COc1cc2c(cc1OC)C1=NN(C(=O)Nc3ccc(C)cc3C)C(c3ccc(F)cc3)C1C2` (stereo unspecified) showed an MIC of 6.25 µM (≈ 2.87 µg/mL).

`COc1ccc(C2C3Cc4cc(OC)c(OC)cc4C3=NN2C(=O)Nc2ccc(C)cc2C)cc1OC` (stereo unspecified) came in with a minimal inhibitory concentration (MIC) of 12.5 µM (≈ 6.27 µg/mL). On to `COc1cc2c(cc1OC)C1=NN(C(=O)Nc3ccc(C)cc3C)C(c3ccccc3)C1C2` (stereo unspecified), for which the MIC is greater than 12.5 µM.

With `COc1ccc(C2C3Cc4cc(OC)c(OC)cc4C3=NN2C(=O)Nc2ccc(C)cc2C)cc1` (stereo unspecified), the MIC was greater than 12.5 µM.

For the molecule `COc1cc2c(cc1OC)C1=NN(C(=O)Nc3c(C)cccc3C)C(c3ccncc3)C1C2` (stereo unspecified), the minimal inhibitory concentration (MIC) is greater than 10 µM.

On to `COc1cc2c(cc1OC)C1=NN(C(=O)Nc3c(C)cccc3C)C(c3ccccc3Cl)C1C2` (stereo unspecified), for which the minimal inhibitory concentration (MIC) worked out at 6.25 µM (≈ 2.97 µg/mL). In turn, `COc1cc2c(cc1OC)C1=NN(C(=O)Nc3c(C)cccc3C)C(c3ccc(F)cc3)C1C2` (stereo unspecified) registered an MIC of 6.25 µM (≈ 2.87 µg/mL).

The molecule `COc1ccc(C2C3Cc4cc(OC)c(OC)cc4C3=NN2C(=O)Nc2c(C)cccc2C)cc1OC` (stereo unspecified) returned an MIC of 12.5 µM (≈ 6.27 µg/mL). As for `COc1cc2c(cc1OC)C1=NN(C(=O)Nc3c(C)cccc3C)C(c3ccccc3)C1C2` (stereo unspecified), the MIC stood at 12.5 µM (≈ 5.52 µg/mL).

`COc1ccc(C2C3Cc4cc(OC)c(OC)cc4C3=NN2C(=O)Nc2c(C)cccc2C)cc1` (stereo unspecified) had an MIC greater than 12.5 µM. On the same count and under the same terms, next, `COc1cc2c(cc1OC)C1=NN(C(N)=S)C(c3ccncc3)C1C2` (stereo unspecified): 6.25 µM (≈ 2.22 µg/mL); `COc1cc2c(cc1OC)C1=NN(C(N)=S)C(c3ccccc3Cl)C1C2` (stereo unspecified): 6.25 µM (≈ 2.42 µg/mL); `COc1cc2c(cc1OC)C1=NN(C(N)=S)C(c3ccc(F)cc3)C1C2` (stereo unspecified): 3.12 µM (≈ 1.16 µg/mL).

Regarding `COc1ccc(C2C3Cc4cc(OC)c(OC)cc4C3=NN2C(N)=S)cc1OC` (stereo unspecified), the MIC came to 12.5 µM (≈ 5.17 µg/mL).

`COc1cc2c(cc1OC)C1=NN(C(N)=S)C(c3ccccc3)C1C2` (stereo unspecified) gave a minimum inhibitory concentration (MIC) of 12.5 µM (≈ 4.42 µg/mL).

For `COc1ccc(C2C3Cc4cc(OC)c(OC)cc4C3=NN2C(N)=S)cc1` (stereo unspecified), the minimal inhibitory concentration (MIC) is 12.5 µM (≈ 4.79 µg/mL). Still for that read-out and setting: next, `NNC(=O)c1ccncc1` [ISONIAZID]: 0.78 µM (≈ 0.107 µg/mL); `CO[C@H]1/C=C/O[C@@]2(C)Oc3c(C)c(O)c4c(O)c(c(/C=N/N5CCN(C)CC5)c(O)c4c3C2=O)NC(=O)/C(C)=C\C=C\[C@H](C)[C@H](O)[C@@H](C)[C@@H](O)[C@@H](C)[C@H](OC(C)=O)[C@@H]1C` [RIFAMPIN]: 0.006 µM (≈ 0.00494 µg/mL).

Broadly, the MIC is the lowest concentration found to suppress growth.
